Consider two compounds from publication PMC2866494 (Phytochemistry, 2010).

One assay addresses T1, COX-1 (Ovis aries, UniProt P05979).
T1 sequence (P05979 25-600): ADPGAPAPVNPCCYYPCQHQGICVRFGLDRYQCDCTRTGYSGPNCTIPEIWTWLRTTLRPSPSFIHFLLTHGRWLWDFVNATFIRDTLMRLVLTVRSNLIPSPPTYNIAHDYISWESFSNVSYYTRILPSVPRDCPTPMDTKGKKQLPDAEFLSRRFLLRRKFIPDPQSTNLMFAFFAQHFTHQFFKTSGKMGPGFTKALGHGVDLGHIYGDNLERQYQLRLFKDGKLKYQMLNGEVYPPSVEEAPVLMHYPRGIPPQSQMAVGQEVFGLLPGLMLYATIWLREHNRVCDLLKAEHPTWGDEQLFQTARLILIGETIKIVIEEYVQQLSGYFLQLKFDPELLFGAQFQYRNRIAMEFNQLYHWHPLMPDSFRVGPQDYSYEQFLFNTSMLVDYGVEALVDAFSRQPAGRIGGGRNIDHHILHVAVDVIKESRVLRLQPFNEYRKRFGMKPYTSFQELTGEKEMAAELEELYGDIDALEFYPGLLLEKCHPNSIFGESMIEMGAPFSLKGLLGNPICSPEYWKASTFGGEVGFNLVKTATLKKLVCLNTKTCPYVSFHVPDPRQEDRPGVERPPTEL
As to the kind of experiment: COX-1 enzyme assay, PGE2 by LC-MS-MS, single point. The conditions noted are these: read-out: CX1 ^f. The assay is classed as biochemical.

For another assay, the target named is T2, aromatase (CYP19) (Homo sapiens, UniProt P11511).
T2 sequence (P11511 1-503): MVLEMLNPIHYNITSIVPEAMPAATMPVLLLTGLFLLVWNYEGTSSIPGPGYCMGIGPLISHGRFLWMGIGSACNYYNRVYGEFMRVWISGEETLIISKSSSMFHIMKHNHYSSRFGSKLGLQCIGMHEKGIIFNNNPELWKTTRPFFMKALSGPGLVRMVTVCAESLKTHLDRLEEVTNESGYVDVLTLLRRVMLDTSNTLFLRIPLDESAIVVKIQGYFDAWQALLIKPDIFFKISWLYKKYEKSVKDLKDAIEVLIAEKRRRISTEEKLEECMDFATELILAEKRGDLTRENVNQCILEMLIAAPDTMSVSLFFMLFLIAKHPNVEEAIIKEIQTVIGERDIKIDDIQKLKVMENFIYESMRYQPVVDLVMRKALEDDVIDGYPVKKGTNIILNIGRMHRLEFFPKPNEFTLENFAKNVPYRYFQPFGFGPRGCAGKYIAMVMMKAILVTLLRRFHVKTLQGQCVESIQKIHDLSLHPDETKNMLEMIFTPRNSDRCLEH
As to the kind of experiment: CYP19 enzyme, dibenzylfluorescein fluorescence assay. The class given is biochemical.

Turning to `CC(=O)OC[C@H]1OC(O[C@@H]2[C@@H](OCCC(=O)C(C)C)[C@@H](O)[C@H](Oc3c(-c4ccc(O)cc4)oc4cc(O)cc(O)c4c3=O)O[C@H]2C)[C@H](O)[C@@H](O)[C@@H]1O` (stereo partly drawn) [compound 1, kaempferol 3-O-[(6‴-O-acetyl-β-D-glucopyranosyl)-(1→4)-3″-O-(4⁗, 4⁗-dimethyl-3-oxo-butyl)-α-L-rhamnopyranoside]], the inhibition at 10 µg/mL at COX-1 came to 52%.

At aromatase (CYP19), `CC(=O)OC[C@H]1O[C@@H](O[C@@H]2[C@@H](O)[C@@H](O)[C@H](Oc3c(-c4ccc(O)cc4)oc4cc(O)cc(O)c4c3=O)O[C@H]2C)[C@H](O)[C@@H](O)[C@@H]1O` [compound 4, multiflorin A] came in with an IC50 of 15.5 µM.

A word on the IC50: it is the concentration that inhibits the measured activity by half. A high value points to lower potency.
